Key:
[1] = tested on: pooled male Sprague-Dawley rat liver microsomes; assay: Metabolism by rat liver microsomes; type: in vitro ADME; conditions: 6 hours incubation
Method: Compounds were incubated with pooled male Sprague-Dawley rat liver microsomes (BD Biosciences, #452501) and an NADP-regenerating system in a phosphate buffer (pH 7.4) for a total of 6 hours. Aliquots were removed every 2 hours, and 1% formic acid was added to halt the reaction. Samples were centrifuged, filtered through 0.2 micron spinfilter and the amount of each compound in the supernatants was quantitated using LC/MS/MS.

[2] = target: T1, human muscarinic M1 receptors (Homo sapiens, UniProt P11229); assay: Inositol phosphate production in huM1/A9L cells (IPOne TR-FRET); type: cell-based
T1 construct: expressed in transfected cells; host or cells: A9L cells (gift from Professor W Messer)
T1 sequence (P11229 1-460): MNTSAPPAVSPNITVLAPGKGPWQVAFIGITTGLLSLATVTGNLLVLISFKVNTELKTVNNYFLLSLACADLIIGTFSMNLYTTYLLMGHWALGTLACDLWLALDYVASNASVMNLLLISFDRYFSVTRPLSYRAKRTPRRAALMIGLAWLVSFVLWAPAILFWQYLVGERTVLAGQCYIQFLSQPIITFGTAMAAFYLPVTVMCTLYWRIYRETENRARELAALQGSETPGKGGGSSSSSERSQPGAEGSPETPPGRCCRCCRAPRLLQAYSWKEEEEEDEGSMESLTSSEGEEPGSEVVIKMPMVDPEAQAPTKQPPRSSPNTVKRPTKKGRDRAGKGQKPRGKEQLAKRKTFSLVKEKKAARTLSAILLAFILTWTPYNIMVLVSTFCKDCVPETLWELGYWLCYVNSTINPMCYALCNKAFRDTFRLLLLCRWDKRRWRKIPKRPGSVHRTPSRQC
Method: Muscarinic M1 and M3 agonist activity was evaluated by measuring the stimulation of inositol phosphate (IP) production in the presence of lithium chloride from A9L cells transfected with expression plasmids containing human muscarinic M1 and M3 receptors, respectively. The cell lines were a gift from Professor W Messer, and the methods were as described in Tejada F R et al. J. Med. Chem. 2006; 49: 7518-31 except that the assay was scaled down to run in 384 well plates, and IP was measured in the cell lysates using the non-isotopic IPOne TR-FRET assay (CIS-BIO, Inc).
Cells were grown to 90% confluence in 384 well hi-base plates (Greiner Bio-One), compounds were added at suitable concentrations in growth medium containing 10 mM LiCL, buffered with an extra 10 mM HEPES (pH7.4), and incubated for 60 minutes at 37° C. Cells were lysed and assayed for IP following the manufacturer's instructions.
The value for a full agonist is 100%, while partial agonists give values below 100%.

[3] = tested on: hippocampal inositol phosphate signaling pathway; assay: In vivo tissue inositol phosphate signaling pathway activation, hippocampus; design: species or system rat; conditions: normal rats, dose-dependent in the dose range 0.03 mg/kg to at least 3 mg/kg
Method: Experimental compounds or drug substances were administered using standard techniques to Long Evans Hooded rats weighing 225 to 350 grams, and which had been pretreated with a subcutaneous injection of lithium chloride at a suitable dose between 3 and 10 mmoles per kg. At suitable times the animals were briefly anesthetized using 5% isoflurane and euthanized by decapitation. The brains and submaxillary salivary glands were rapidly dissected out, and the hippocampuses were dissected from the brains. The dissected tissues were homogenized in a suitable volume of ice-cold phosphate-buffered saline containing 10 mM lithium chloride, pH7.4, using a tissue homogenizer, and used immediately or frozen in aliquots at −80degC. for future use. The concentration of inositol-1-phosphate was determined in the homogenates using the IPOne TR-FRET assay (CisBio cat no 621PAPEB), following the manufacturer's instruction

## Cc1noc(C2CCCNC2)n1 (racemic) [Compound 82, 3-Methyl-5-(piperidin-3-yl)-1,2,4-oxadiazole]
[1]
  extent of metabolism in rat liver microsomes: far more stable than compounds 126 and 127
[2]; percentage of maximal stimulation by carbachol
  huM1/A9L Smax: 108%
[2]; potency relative to carbachol
  huM1/A9L ED50 relative to CCh: + (potency 2-10x CCh)
[3]
  hippocampal IP response: causes an increase in the hippocampal IP response
